Laboratory results: the supplement of paper PMC10307832

How the values were obtained:
Test in all cases: relative viability (nuclei count vs DMSO), 5 days (fraction); higher = more cells survive
NCI-H647 = tested on: NCI-H647
In short: (§1)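 Relative viability is defined as nuclei in treated wells over nuclei in vehicle wells. Duplicate plates were run and medians reported. Lung cancer cell lines in 1536-well plates were dosed by pin tool one day after seeding, with one drug or with a fixed anchor-drug dose plus five library-drug doses (not always all listed) in √10 steps, and nuclei were counted after 5 days.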

LOU-NH91 = tested on: LOU-NH91
In short: as §1

NCI-H358 = tested on: NCI-H358
In short: as §1

NCI-H1915 = tested on: NCI-H1915
In short: as §1

RERF-LC-KJ = tested on: RERF-LC-KJ
In short: as §1

NCI-H2342 = tested on: NCI-H2342
In short: as §1

NCI-H2126 = tested on: NCI-H2126
In short: as §1

LXF-289 = tested on: LXF-289
In short: as §1

NCI-H1792 = tested on: NCI-H1792
In short: as §1

PC-3 [JPC-3] = tested on: PC-3 [JPC-3]
In short: as §1

A-427 = tested on: A-427
In short: as §1

NCI-H460 = tested on: NCI-H460
In short: as §1

COc1cc(N2CCC(C(N)=O)CC2)ccc1Nc1nc(N)c(Cl)c(Nc2ccccc2S(=O)(=O)C(C)C)n1 [HG-5-88-01] + CCNC(=O)c1noc(-c2cc(C(C)C)c(O)cc2O)c1-c1ccc(CN2CCOCC2)cc1 [Luminespib] (partner 0.01 µM)
relative viability (NCI-H647; first compound 0.4 µM): 0.13 | relative viability (NCI-H647; first compound 1.265 µM): 0.148 | relative viability (NCI-H647; first compound 4 µM): 0.248 | relative viability (LOU-NH91; first compound 0.04 µM): 0.337 | relative viability (LOU-NH91; first compound 0.1265 µM): 0.338 | relative viability (LOU-NH91; first compound 0.4 µM): 0.331 | relative viability (LOU-NH91; first compound 1.265 µM): 0.35 | relative viability (LOU-NH91; first compound 4 µM): 0.356 | relative viability (NCI-H358; first compound 0.04 µM): 0.335 | relative viability (NCI-H358; first compound 0.1265 µM): 0.256 | relative viability (NCI-H358; first compound 0.4 µM): 0.422 | relative viability (NCI-H358; first compound 1.265 µM): 0.099 | relative viability (NCI-H358; first compound 4 µM): 0.148 | relative viability (NCI-H1915; first compound 0.04 µM): 0.774 | relative viability (NCI-H1915; first compound 0.1265 µM): 0.755 | relative viability (NCI-H1915; first compound 0.4 µM): 0.792 | relative viability (NCI-H1915; first compound 1.265 µM): 1.01 | relative viability (NCI-H1915; first compound 4 µM): 0.786 | relative viability (RERF-LC-KJ; first compound 0.04 µM): 1.4 | relative viability (RERF-LC-KJ; first compound 0.1265 µM): 1.33 | relative viability (RERF-LC-KJ; first compound 0.4 µM): 1.25 | relative viability (RERF-LC-KJ; first compound 1.265 µM): 1.23 | relative viability (RERF-LC-KJ; first compound 4 µM): 0.963 | relative viability (NCI-H2342; first compound 0.04 µM): 0.672 | relative viability (NCI-H2342; first compound 0.1265 µM): 0.739 | relative viability (NCI-H2342; first compound 0.4 µM): 0.688 | relative viability (NCI-H2342; first compound 1.265 µM): 0.701 | relative viability (NCI-H2342; first compound 4 µM): 0.845 | relative viability (NCI-H2126; first compound 0.04 µM): 0.836 | relative viability (NCI-H2126; first compound 0.1265 µM): 0.975 | relative viability (NCI-H2126; first compound 0.4 µM): 0.861 | relative viability (NCI-H2126; first compound 1.265 µM): 0.699 | relative viability (NCI-H2126; first compound 4 µM): 0.57 | relative viability (LXF-289; first compound 0.04 µM): 0.703 | relative viability (LXF-289; first compound 0.1265 µM): 0.733 | relative viability (LXF-289; first compound 0.4 µM): 0.698 | relative viability (LXF-289; first compound 1.265 µM): 0.721 | relative viability (LXF-289; first compound 4 µM): 0.897 | relative viability (NCI-H1792; first compound 0.04 µM): 0.442 | relative viability (NCI-H1792; first compound 0.1265 µM): 0.609 | relative viability (NCI-H1792; first compound 0.4 µM): 0.472 | relative viability (NCI-H1792; first compound 1.265 µM): 0.325 | relative viability (NCI-H1792; first compound 4 µM): 0.552 | relative viability (PC-3 [JPC-3]; first compound 0.04 µM): 0.709 | relative viability (PC-3 [JPC-3]; first compound 0.1265 µM): 0.656 | relative viability (PC-3 [JPC-3]; first compound 0.4 µM): 0.724 | relative viability (PC-3 [JPC-3]; first compound 1.265 µM): 0.744 | relative viability (PC-3 [JPC-3]; first compound 4 µM): 0.743 | relative viability (A-427; first compound 0.04 µM): 1.13 | relative viability (A-427; first compound 0.1265 µM): 0.916 | relative viability (A-427; first compound 0.4 µM): 0.901 | relative viability (A-427; first compound 1.265 µM): 0.769 | relative viability (A-427; first compound 4 µM): 0.754 | relative viability (NCI-H460; first compound 0.04 µM): 0.0373 | relative viability (NCI-H460; first compound 0.1265 µM): 0.0308 | relative viability (NCI-H460; first compound 0.4 µM): 0.0242 | relative viability (NCI-H460; first compound 1.265 µM): 0.0363 | relative viability (NCI-H460; first compound 4 µM): 0.0375
